Source: patent publication US6485975B1, “Method for regenerating viable and fertile citrus plants by tissue culture from explants” (Council of Scientific and Industrial Research, priority 2000, dated 2002)
Where “and” joins values, the source holds several entries; their conditions need not be identical. Identical values can stand only once.

What was measured:
[1] = tested on: meristem-regenerated shoots of C. sinensis; test: Root induction in meristem-regenerated shoots of C. sinensis; format: cell-based, Citrus sinensis; details: same treatments as for C. aurantifolia (0.25 mg l^-1 auxin, 1 mg l^-1 chlorogenic acid)
Description: (§1) h) rooting of the isolated well-developed shoots of C. aurantifolia to the extent of 100% in 15 days, and of C. sinensis to the extent of 90% in 25 days, in agarified media-E and F respectively.
The medium-E, which was found effective for inducing desirable rooting in a number of Citrus species, including its rootstocks, when was found deficient for promoting root induction in the presence of multiple combinations of auxins, viz., IAA. IPA, IBA and NAA without or with phenolic acids, namely, phloroglucinol and chlorogenic acid, it was variously modified. The modifications included, increase in the concentrations of thiamine-HCl, pyridoxine-HCl and nicotinic acid to 2.5, 0.5 and 0.5 mg 1^−1, respectively, addition of some other root promoting vitamins, like, riboflavin, folic acid and d-biotin at the concentration of 0.1 mg 1^−1 each as also 15 mg 1^−1 L-arginine.
The rooting responses of well-developed isolated shoots of C. sinensis to various auxins used without and with phenolic acids employing the medium-E (Table I) devoid of auxins and the phenolic acid as the basal medium, are presented in Table 3. A combination of three auxins, namely, IAA, NAA and IPA along with a phenolic acid, namely, chlorogenic acid or phloroglucinol was essential for root induction.

[2] = tested on: meristem-regenerated shoots of Citrus aurantifolia; test: Root induction in meristem-regenerated shoots of Citrus aurantifolia; format: cell-based; details: 0.25 mg l^-1 of the auxin, used with 1 mg l^-1 chlorogenic acid
Description: as §1
The meristem-regenerated well-developed shoots of C. aurantifolia easily rooted in medium-E (Table I) selected on the basis of the formulations used earlier during the investigations on Citrus tissue culture in this Laboratory (Chaturvedi, H. C. 1979. Tissue culture of economic plants. In: Progress in Plant Research. Eds. T. N. Khoshoo and P. K. K. Nair, Today and Tomorrow's Publisher, New Delhi, Vol.1, pp.265-288; Chaturvedi, H. C. and Sharma, A. K. 1988. Citrus tissue culture. In: Proc. Natl. Seminar on Plant Tissue Culture, I.C.A.R., New Delhi, pp.36-46). The basic differences of the root inducing media from the shoot proliferation media of Citrus are, comparatively lower concentrations of nitrogen, calcium and magnesium in the former. […] Even its shoots raised from seedling explants have been reported to be intractable-to-root in vitro (Duran-vila, N., Ortega, V. and Navarro, L. 1989. Morphogenesis and tissue cultures of three citrus species. Plant Cell, Tissue and Organ Culture, 16: 123-133).

[3] = tested on: excised shoot meristems of Citrus aurantifolia and C. sinensis; test: Growth of excised shoot meristems, both Citrus species not distinguished; format: cell-based
Description: e) excising the meristem domes along with youngest 2-3 leaf primordia ranging in length between 0.2-0.5 mm from the aseptically grown shoots followed by their culture on the liquid medium-C under the same controlled light and temperature conditions as in step (c) at least for a period of 15 days to let them attain a length of ca. 8 mm, f) subculturing the meristem-regenerated shoots on filter paper bridge employing liquid medium-D in order to obtain healthy shoots of an average length of about 1.5 cm without intervening callusing within a period of 20-25 days, Since for growth, an excised shoot meristem may require exogenous supply of mainly three growth hormones, viz., a cytokinin, an auxin and a gibberellin, these were provided individually at 3 concentrations (mg 1^−1) each and in certain combinations as given below using the medium-C (Table I) devoid of IAA and GA as the basal medium: 0.1 BAP; 0.25 BAP; 0.5 BAP; 0.1 IAA; 0.25 IAA; 0.5 IAA: 5 GA; 10 GA; 15 GA; 0.1 BAP+0.1 IAA; 0.25 BAP+0.1 IAA; 0.5 BAP+0.1 IAA; 5 GA+0.1 IAA; 10 GA+0.1 IAA and 15 GA+0.1 IAA. […] In the next step, on the basis of the responses obtained, shoot meristems were cultured in all the afore-said 3 concentrations of BAP (0.1, 0.25 and 0.5 mg 1^−1) or GA (5, 10 and 15 mg 1^−1) along with 0.1 mg 1^−1 IAA. […] In this treatment, growth of meristem on nutrient agar as well as in liquid medium using filter paper bridge was compared. Shoot meristems grew far better on filter paper bridge than on nutrient agar in the same treatment (table 3). […] Higher or lower than 0.1 mg 1^−1 concentrations of BAP were not conducive to normal growth of shoot meristems.

[4] = tested on: isolated shoots of Citrus aurantifolia; test: Proliferation of isolated shoots of Citrus aurantifolia; format: cell-based; details: for Condition of shoots / Growth of regenerated shoots Length in cm: 30 days; for No. of off-shoots regenerated: culture period 30 days, mean of 5 cultures ± S.E.
Description: (§2) g) proliferating the meristem-regenerated 1.5-cm-long shoots of C. aurantifolia and C. sinensis by repeated subculture in medium-A and medium-B, respectively to obtain well-developed shoots to the extent of an average 10 shoots and 6 shoots, respectively, within 4 subcultures of 30 days each,
(§3) Proliferation of Isolated Shoots Obtained from Regenerated Nodal Stem Segments of Mature Field-grown Trees of Citrus aurantifolis and C. sinensis
(§4) Proliferation of isolated shoots was obtained in presence of BAP and an auxin, LAA or NAA employing the medium-A (Table I) for C. aurantifolia, and medium-B (Table I) for C. sinensis, but not vice-versa, where both media A and B, devoid of growth hormones comprised the basal media. […] Responses of the isolated shoots to some selected combinations of BAP with IAA or NAA are given in the Table 1, which lead to the selection of specific nutrient media for optimum proliferation of shoots of these two Citrus species.
The maximum number of offshoots produced per explant of a shoot tip of C. aurantifolia was 7 in 0.75 mg 1^−1 BAP and 0.25 mg 1^−1 IAA, however, the shoots not only were restricted in growth, but also substantial intervening callus was formed. Similarly, in the concentrations of 0.5 and 1.0 mg 1^−1 BAP, particularly the second aspect of response remained equally prominent, i.e., growth restriction of offshoots and intervening callusing during their differentiation. […] Thus, the 0.25 mg 1^−1 concentration of both BAP and IAA was selected comprising the medium-A for proliferation of isolated shoots originally regenerated from nodal stem segments of mature field-grown trees of C. aurantifolia.

[5] = tested on: isolated shoots of C. sinensis; test: Proliferation of isolated shoots of C. sinensis; format: cell-based, Citrus sinensis; details: for Condition of shoots / Growth of regenerated shoots Length in cm: 30 days; for No. of off-shoots regenerated: culture period 30 days, mean of 5 cultures ± S.E.
Description: as §2, §3, §4
Likewise, 0.25 mg 1^−1 concentration of BAP and 0.5 mg 1^−1 of NAA were selected comprising the medium-B for optimum proliferation of shoots of C. sinensis in view of the same two criteria, viz., moderately high number of offshoot production with good growth and their differentiation without any intervening callusing.

[6] = BAP (0.1, 0.25, 0.5 mg l^-1) or GA (5, 10, 15 mg l^-1) along with 0.1 mg l^-1 IAA
[7] = individually at lower concentrations: IAA 0.1 mg l^-1 or GA 5 mg l^-1

With `O=C(O)Cc1cccc2ccccc12` [NAA, α-naphthalene-acetic acid] as the molecule, how does the rooting [1] read?
The rooting was “did not root”.

And the rooting [2]?
The rooting was “Hundred percent”.

`O=C(O)CCc1c[nH]c2ccccc12` [IPA, indole-3-propionic acid] was tested. Which rooting [1] did it give?
The rooting was “did not root”.

And the rooting [2]?
Its rooting is “Hundred percent”.

How did the “response of shoot meristems” value [3, 6] turn out when `c1ccc(CNc2ncnc3nc[nH]c23)cc1` [BAP, 6-benzylaminopurine] was run?
The value was “became abnormally thick”.

And the “delay of necrosis of shoot meristem” value ([3]; BAP individually, particularly 0.1 mg l^-1)?
The value was 10 to 15 days.

And the Condition of shoots ([4]; BAP 0.1 mg l^-1 with 0.25 IAA)?
The Condition of shoots was “A few well-develop-”.

And the “Growth of regenerated shoots Length in cm” value (“Growth” for short) ([4]; BAP 0.1 mg l^-1 with 0.25 IAA)?
The value was 1.44 ± 0.14 cm.

What about the “No. of off-shoots regenerated” value ([4]; BAP 0.1 mg l^-1 with 0.25 IAA) of the same molecule?
The value was 3.6 ± 0.40.

And the Condition of shoots ([4]; BAP 0.25 mg l^-1 with 0.25 IAA)?
Its Condition of shoots is “Well-developed”.

What about the “Growth” value ([4]; BAP 0.25 mg l^-1 with 0.25 IAA) of the same molecule?
Its value is 1.40 ± 0.13 cm.

And the “No. of off-shoots regenerated” value ([4]; BAP 0.25 mg l^-1 with 0.25 IAA)?
The value was 5.8 and 5.8 ± 0.58.

What about the “Growth” value ([4]; BAP 0.5 mg l^-1 with 0.25 IAA) of the same molecule?
Its value is 0.99 ± 0.10 cm.

And the “No. of off-shoots regenerated” value ([4]; BAP 0.5 mg l^-1 with 0.25 IAA)?
The value was 5.4 ± 1.02.

And the “Growth” value ([4]; BAP 0.75 mg l^-1 with 0.25 IAA)?
The value was 0.86 ± 0.08 cm.

And the “No. of off-shoots regenerated” value ([4]; BAP 0.75 mg l^-1 with 0.25 IAA)?
Its value is 7 and 7.0 ± 0.44.

What about the “Growth” value ([4]; BAP 1.0 mg l^-1 with 0.25 IAA) of the same molecule?
The value was 0.76 ± 0.10 cm.

What about the “No. of off-shoots regenerated” value ([4]; BAP 1.0 mg l^-1 with 0.25 IAA) of the same molecule?
The value was 5.6 ± 1.40.

And the Condition of shoots ([5]; BAP 0.1 mg l^-1 with 0.5 NAA)?
Its Condition of shoots is “A few well-”.

And the “Growth” value ([5]; BAP 0.1 mg l^-1 with 0.5 NAA)?
The value was 1.16 ± 0.27 cm.

What about the “No. of off-shoots regenerated” value ([5]; BAP 0.1 mg l^-1 with 0.5 NAA) of the same molecule?
Its value is 1.8 ± 0.37.

What about the Condition of shoots ([5]; BAP 0.25 mg l^-1 with 0.5 NAA) of the same molecule?
The Condition of shoots was “Well-developed”.

And the “Growth” value ([5]; BAP 0.25 mg l^-1 with 0.5 NAA)?
Its value is 1.65 ± 0.20 cm.

And the “No. of off-shoots regenerated” value ([5]; BAP 0.25 mg l^-1 with 0.5 NAA)?
The value was 2.6 and 2.6 ± 0.24.

What about the Condition of shoots ([5]; BAP 0.5 mg l^-1 with 0.5 NAA) of the same molecule?
Its Condition of shoots is “Well-developed”.

What about the “Growth” value ([5]; BAP 0.5 mg l^-1 with 0.5 NAA) of the same molecule?
The value was 1.08 ± 0.12 cm.

What about the “No. of off-shoots regenerated” value ([5]; BAP 0.5 mg l^-1 with 0.5 NAA) of the same molecule?
The value was 3.4 ± 0.44.

And the “Growth” value ([5]; BAP 0.75 mg l^-1 with 0.5 NAA)?
Its value is 0.78 ± 0.10 cm.

What about the “No. of off-shoots regenerated” value ([5]; BAP 0.75 mg l^-1 with 0.5 NAA) of the same molecule?
Its value is 3.2 ± 0.73.

What about the “Growth” value ([5]; BAP 1.0 mg l^-1 with 0.5 NAA) of the same molecule?
The value was 0.75 ± 0.08 cm.

And the “No. of off-shoots regenerated” value ([5]; BAP 1.0 mg l^-1 with 0.5 NAA)?
Its value is 2.0 ± 0.31.

Which results are given for `C=C1C[C@]23C[C@@]1(O)CC[C@H]2[C@@]12C=C[C@H](O)[C@@](C)(C(=O)O1)[C@H]2[C@@H]3C(=O)O` [GA, gibberellic acid]?
response of shoot meristems [3, 6]: registered some growth; response of shoot meristems [3, 7]: remained fresh with a little increase in their length

Which results are given for `O=C(O)Cc1c[nH]c2ccccc12` [IAA, indole-3-acetic acid]?
response of shoot meristems [3, 7]: remained fresh with a little increase in their length; rooting [1]: did not root; rooting [2]: Hundred percent

`O=C(O)CCCc1c[nH]c2ccccc12` [IBA, indole-3-butyric acid] was tested. Which rooting [1] did it give?
The rooting was “did not root”.

What about the rooting [2] of the same molecule?
The rooting was “Hundred percent”.
